In article PMC12136037, “Type II kinase inhibitors that target Parkinson’s disease–associated LRRK2” (Science Advances, 2025):

Biological target: T1, LRRK2^KW (Homo sapiens, UniProt Q5S007)
T1 construct: LRRK2 R1847 to E2527; His6-Z-tag (TEV cleavable) (N, cleaved yes); host or cells: Sf9 insect cells (baculovirus)
T1 sequence (Q5S007 1847-2527): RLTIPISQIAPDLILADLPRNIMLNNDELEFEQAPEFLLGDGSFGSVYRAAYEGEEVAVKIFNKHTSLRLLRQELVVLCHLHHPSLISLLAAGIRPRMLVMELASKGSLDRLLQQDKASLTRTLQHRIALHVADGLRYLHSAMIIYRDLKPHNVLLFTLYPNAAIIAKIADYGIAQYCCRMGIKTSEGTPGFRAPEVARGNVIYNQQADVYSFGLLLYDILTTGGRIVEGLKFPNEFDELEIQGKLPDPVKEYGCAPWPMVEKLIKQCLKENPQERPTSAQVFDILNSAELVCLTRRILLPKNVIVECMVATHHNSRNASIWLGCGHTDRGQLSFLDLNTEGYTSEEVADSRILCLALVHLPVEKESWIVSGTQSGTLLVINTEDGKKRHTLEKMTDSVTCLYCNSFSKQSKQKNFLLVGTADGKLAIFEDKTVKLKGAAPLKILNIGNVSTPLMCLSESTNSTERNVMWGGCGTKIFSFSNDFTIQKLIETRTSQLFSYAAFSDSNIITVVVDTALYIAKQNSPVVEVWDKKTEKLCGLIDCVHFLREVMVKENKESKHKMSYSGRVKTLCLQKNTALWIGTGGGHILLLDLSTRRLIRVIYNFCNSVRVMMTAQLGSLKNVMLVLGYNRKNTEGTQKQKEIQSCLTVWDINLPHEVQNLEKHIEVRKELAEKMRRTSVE
Experiment: DSF thermal stabilization of LRRK2^KW
Assay type: binding
Settings: screen of 31 type-II inhibitors, Table S1
Experimental: To characterize binding between small molecules and LRRK2^KW, induced thermal stabilization was measured by DSF according to previously established protocols ([47]). In brief, LRRK2^KW was diluted to 4 μM in 20 mM Hepes (pH 7.4), 150 mM NaCl, 0.5 mM TCEP, 0.5% glycerol, 20 μM GDP, and 2.5 mM MgCl2, and SYPRO Orange was added (1:1000, MilliporeSigma). Inhibitor (10 μM) to be tested was added to a final sample volume of 20 μl per well of a 96-well plate (white, Starlab). […] The fluorescence was plotted against the temperature, and the melting point (Tm) was determined as the minimum of the first derivative relative to the control.

Compound | dTm LRRK2(KW) [K]
CCN1CCN(Cc2ccc(NC(=O)c3ccc(C)c(NC(=O)c4cncc(-c5cccs5)c4)c3)cc2C(F)(F)F)CC1 [ALW-II-41-27, reference compound] | -0.5 K
Cc1csc(-c2nnc(Nc3ccc(Oc4ncccc4-c4ccnc(N)n4)cc3)c3ccccc23)c1 [AMG 900, reference compound] | 4.5 K
CCN1CCN(Cc2ccc(NC(=O)Nc3ccc(Oc4cc(NC)ncn4)cc3)cc2C(F)(F)F)CC1 [AST-487, reference compound] | 10 K
Cc1ccc(NC(=O)c2cccc(C(C)(C)C#N)c2)cc1Nc1ccc2ncn(C)c(=O)c2c1 [AZ 628, reference compound] | -0.5 K
N#CC1(c2ccc(NC(=O)c3cccnc3NCc3ccncc3)cc2)CCCC1 [Apatinib, reference compound] | -1 K
CNC(=O)c1ccccc1Sc1ccc2c(/C=C/c3ccccn3)n[nH]c2c1 [Axitinib, reference compound] | 7.5 K
Cc1ccc(-n2nc(C(C)(C)C)cc2NC(=O)Nc2ccc(OCCN3CCOCC3)c3ccccc23)cc1 [BIRB-796, reference compound] | 0 K
CCOc1ccn(-c2ccc(F)cc2)c(=O)c1C(=O)Nc1ccc(Oc2ccnc(N)c2Cl)c(F)c1 [BMS 777607, reference compound] | 6.8 K
COc1cc2nccc(Oc3ccc(NC(=O)C4(C(=O)Nc5ccc(F)cc5)CC4)cc3)c2cc1OC [Cabozantinib, reference compound] | 7.5 K
CN1CCN(C2CCN(C(=O)Nc3cc(Oc4ccc(NC(=O)C5(C(=O)Nc6ccc(F)cc6)CC5)c(F)c4)ccn3)CC2)CC1 [Golvatinib, reference compound] | 0.5 K
Cc1ccc(NC(=O)c2ccc(CN3CCN(C)CC3)cc2)cc1Nc1nccc(-c2cccnc2)n1 [Imatinib, reference compound] | 0 K
COc1cc(Oc2ccnc3cc(OC)c(OC)cc23)ccc1NC(=O)NC(C)c1nccs1 (centres unmarked) [KI20227, reference compound] | 3 K
Cc1ccc(F)c(NC(=O)Nc2ccc(-c3cccc4[nH]nc(N)c34)cc2)c1 [Linifanib, reference compound] | 5.8 K
Cc1ccc(NC(=O)c2ccc(CN3CCN(C)CC3)cc2)cc1Nc1nc(-c2cccnc2)cs1 [Masitinib, reference compound] | 0 K
CC1(C)CNc2cc(NC(=O)c3cccnc3NCc3ccncc3)ccc21 [Motesanib, reference compound] | -0.5 K
Cc1ccc(C(=O)Nc2cccc(C(F)(F)F)c2)cc1Nc1nc(-c2cccnc2)nc2c1cnn2C [NVP-BHG712, reference compound] | -0.5 K
Cc1cn(-c2cc(NC(=O)c3ccc(C)c(Nc4nccc(-c5cccnc5)n4)c3)cc(C(F)(F)F)c2)cn1 [Nilotinib, reference compound] | -2.5 K
COC(=O)c1ccc2c(c1)NC(=O)/C2=C(\Nc1ccc(N(C)C(=O)CN2CCN(C)CC2)cc1)c1ccccc1 [Nintedanib, reference compound] | 5 K
O=C(Nc1ccc(OC(F)(F)F)cc1)c1sccc1NCc1ccnc2ccccc12 [OSI-930, reference compound] | 0 K
Cc1ccc(-n2nc(C(C)(C)C)cc2NC(=O)Nc2cc(COc3cccnc3)[nH]n2)cc1 [PF-4618433, reference compound] | 11 K
FC(F)(F)c1ccc(CNc2ccc(Cc3c[nH]c4ncc(Cl)cc34)cn2)cn1 [Pexidartinib, reference compound] | 6.8 K
CC(C)(C)c1cc(NC(=O)Nc2ccc(-c3cn4c(n3)sc3cc(OCCN5CCOCC5)ccc34)cc2)no1 [Quizartinib, reference compound] | 3.5 K
CNC(=O)c1cc(Oc2ccc(NC(=O)Nc3ccc(Cl)c(C(F)(F)F)c3)c(F)c2)ccn1 [Regorafinib, reference compound] | 5.5 K
COc1cc2nccc(Oc3ccc(NC(=O)Nc4cc(C)on4)c(Cl)c3)c2cc1OC [Tivozanib (AV-951), reference compound] | 11.5 K
Cc1ccc(NC(=O)c2cccc(N(C)C)c2)cc1NC(=O)c1ccc(O)cc1 [ZM336372, reference compound] | -1 K
COc1cc2c(Nc3ccc(NC(=O)c4ccccc4)cc3)ncnc2cc1OCCCN1CCOCC1 [ZM447439, reference compound] | 6.5 K
